Read-outs that look alike come from different tables or passages of the source.
Legend:
T-cell [1] = test: CD25 cell surface staining on T-cells stimulated with anti-CD3 antibody alone (Biological Example 2); assay type: cell-based, human; settings: T-cell; for fold induction at 8 µM: 8 μM Cbl-b inhibitor
T-cell [2] = test: IL-2 secretion from T-cells co-stimulated with anti-CD3 and anti-CD28 antibody (Biological Example 2); assay type: cell-based, human; settings: Homo sapiens, T-cell; for fold induction at 4 µM: 4 μM Cbl-b inhibitor
How it was run: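 T-cells were stimulated with anti-CD3 antibody alone or with anti-CD28 antibody, in the presence or absence of Cbl-b inhibitor. IL-2 secretion or CD25 surface staining was measured, and values expressed as fold over the uninhibited baseline […].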

T-cell [3] = test: IL-2 secretion from T-cells stimulated with anti-CD3 antibody alone (Biological Example 2); assay type: cell-based, human; settings: T-cell; for fold induction at 8 µM: 8 μM Cbl-b inhibitor
Cbl-b = Cbl-b (Homo sapiens, UniProt Q13191); test: Cbl-b inhibition assay (Cbl-b activity assay, FRET, Biological Example 1; 100 mM NaCl, 60 nM Src kinase); assay type: biochemical; settings: upper bound stated in text lists; read-out: IC50 values in the Cbl-b inhibition assay of Biological Example 1
Chain of Cbl-b (Q13191 36-427): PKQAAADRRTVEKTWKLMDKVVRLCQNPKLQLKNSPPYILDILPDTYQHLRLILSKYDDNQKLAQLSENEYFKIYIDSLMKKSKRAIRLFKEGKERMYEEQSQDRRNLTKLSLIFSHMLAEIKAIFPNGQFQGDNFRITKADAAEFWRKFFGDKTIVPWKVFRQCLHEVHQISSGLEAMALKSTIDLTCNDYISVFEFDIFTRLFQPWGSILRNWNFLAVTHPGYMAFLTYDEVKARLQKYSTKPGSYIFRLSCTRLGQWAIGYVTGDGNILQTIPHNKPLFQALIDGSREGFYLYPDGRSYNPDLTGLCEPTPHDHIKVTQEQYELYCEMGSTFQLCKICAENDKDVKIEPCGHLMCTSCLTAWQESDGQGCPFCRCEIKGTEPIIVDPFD
How it was run: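 Inhibition is read as loss of FRET signal. The signal arises when Src-phosphorylated, N-terminal biotinylated Avi-Cbl-b (captured by streptavidin-terbium) binds UbcH5B carrying covalently linked Bodipy-Fluorescein-tagged ubiquitin.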

[4] = fold change over baseline, 1 μM Cbl-b inhibitor, primary human total T-cells, read-out: CD25 staining Anti-CD3 stimulation
[5] = fold change over baseline, primary human total T-cells, read-out: CD25 staining Anti-CD3 stimulation
[6] = fold change over baseline, 0.3 μM Cbl-b inhibitor, primary human total T-cells, read-out: IL-2 secretion Anti-CD3/Anti-CD28 stimulation
[7] = fold change over baseline, 1 μM Cbl-b inhibitor, primary human total T-cells, read-out: IL-2 secretion Anti-CD3/Anti-CD28 stimulation
[8] = fold change over baseline, primary human total T-cells, read-out: IL-2 secretion Anti-CD3/Anti-CD28 stimulation
[9] = fold change over baseline, 1 μM Cbl-b inhibitor, primary human total T-cells, read-out: IL-2 secretion Anti-CD3 stimulation
[10] = fold change over baseline, primary human total T-cells, read-out: IL-2 secretion Anti-CD3 stimulation
[11] = read-out: IL-2 secretion, Anti-CD3/Anti-CD28 stimulation, fold change over baseline
[12] = Homo sapiens, 1 μM Cbl-b inhibitor, fold change over baseline (anti-CD3/anti-CD28 stimulated T-cells without inhibitor), read-out: CD25 staining Anti-CD3 stimulation
[13] = 0.3 μM Cbl-b inhibitor, fold change over baseline (anti-CD3/anti-CD28 stimulated T-cells without inhibitor), read-out: IL-2 secretion Anti-CD3/Anti-CD28 stimulation
[14] = 1 μM Cbl-b inhibitor, fold change over baseline (anti-CD3/anti-CD28 stimulated T-cells without inhibitor), read-out: IL-2 secretion Anti-CD3/Anti-CD28 stimulation
[15] = Homo sapiens, 1 μM Cbl-b inhibitor, fold change over baseline (anti-CD3/anti-CD28 stimulated T-cells without inhibitor), read-out: IL-2 secretion Anti-CD3 stimulation

Row | SMILES | fold induction at 1 µM (T-cell [1]; [4]) | fold induction at 8 µM (T-cell [1]; [5]) | fold induction at 0.3 µM (T-cell [2]; [6]) | fold induction at 1 µM (T-cell [2]; [7]) | fold induction at 4 µM (T-cell [2]; [8]) | fold induction at 1 µM (T-cell [3]; [9]) | fold induction at 8 µM (T-cell [3]; [10]) | IC50 (Cbl-b) [nM] | fold induction at 1 µM (T-cell [1]; Homo sapiens, read-out: CD25 staining, Anti-CD3 stimulation, fold change over baseline) | fold induction at 0.3 µM (T-cell [2]; [11]) | fold induction at 1 µM (T-cell [2]; [11]) | fold induction at 1 µM (T-cell [3]; Homo sapiens, read-out: IL-2 secretion, Anti-CD3 stimulation, fold change over baseline) | fold induction at 1 µM (T-cell [1]; [12]) | fold induction at 0.3 µM (T-cell [2]; [13]) | fold induction at 1 µM (T-cell [2]; [14]) | fold induction at 1 µM (T-cell [3]; [15])
1 | C[C@H](Cc1nncn1C)c1cc(NC2COC2)nc(N2Cc3c(cccc3C(F)(F)F)C2=O)c1 [Compound 352, 2-{4-[(2R)-1-(4-methyl-4H-1,2,4-triazol-3-yl)propan-2-yl]-6-[(oxetan-3-yl)amino]pyridin-2-yl}-4-(trifluoromethyl)-2,3-dihydro-1H-isoindol-1-one] | 0.801 to 1 | > 1 | 1.01 to 2.5 | 1.01 to 2.5 | 5 to 7.5 | 0.051 to 0.1 | > 0.201 | ≤ 100 | – | – | – | – | – | – | – | –
2 | CC(C)Nc1cc([C@H](C)Cc2nncn2C)cc(N2Cc3c(cccc3C(F)(F)F)C2=O)n1 [Compound 353, 2-{4-[(2R)-1-(4-methyl-4H-1,2,4-triazol-3-yl)propan-2-yl]-6-[(propan-2-yl)amino]pyridin-2-yl}-4-(trifluoromethyl)-2,3-dihydro-1H-isoindol-1-one] | 0.801 to 1 | > 1 | 1.01 to 2.5 | 2.51 to 5 | > 7.5 | 0.101 to 0.15 | > 0.201 | ≤ 100 | – | – | – | – | – | – | – | –
3 | CCOc1cc([C@H](C)Cc2nncn2C)cc(N2Cc3c(cccc3C(F)(F)F)C2=O)n1 [Compound 358, (R)-2-(6-ethoxy-4-(1-(4-methyl-4H-1,2,4-triazol-3-yl)propan-2-yl)pyridin-2-yl)-4-(trifluoromethyl)isoindolin-1-one] | > 1 | > 1 | 2.51 to 5 | 5 to 7.5 | > 7.5 | 0.151 to 0.2 | > 0.201 | ≤ 100 | – | – | – | – | – | – | – | –
4 | CCNc1cc([C@H](C)Cc2nncn2C)cc(N2Cc3c(cccc3C(F)(F)F)C2=O)n1 [Compound 360, (R)-2-(6-(ethylamino)-4-(1-(4-methyl-4H-1,2,4-triazol-3-yl)propan-2-yl)pyridin-2-yl)-4-(trifluoromethyl)isoindolin-1-one] | > 1 | > 1 | 2.51 to 5 | > 7.5 | > 7.5 | > 0.201 | > 0.201 | ≤ 100 | – | – | – | – | – | – | – | –
5 | CNc1cc([C@H](C)Cc2nncn2C)cc(N2Cc3c(cccc3C(F)(F)F)C2=O)n1 [Compound 363, (R)-2-(4-(1-(4-methyl-4H-1,2,4-triazol-3-yl)propan-2-yl)-6-(methylamino)pyridin-2-yl)-4-(trifluoromethyl)isoindolin-1-one] | 0.601 to 0.8 | > 1 | 1.01 to 2.5 | 1.01 to 2.5 | 5 to 7.5 | 0.051 to 0.1 | 0.151 to 0.2 | ≤ 100 | – | – | – | – | – | – | – | –
6 | CN1CC2CCC(C1)N2c1cc2c(c(C(F)(F)F)c1)CN(c1cccc(C3(Cc4nncn4C)COC3)c1)C2=O [Compound 386, 2-(3-(3-((4-Methyl-4H-1,2,4-triazol-3-yl)methyl)oxetan-3-yl)phenyl)-6-(3-methyl-3,8-diazabicyclo[3.2.1]octan-8-yl)-4-(trifluoromethyl)isoindolin-1-one] | – | – | – | – | – | – | – | ≤ 100 | > 1 | > 7.5 | > 7.5 | > 0.201 | – | – | – | –
7 | C[C@H](c1cc2c(c(C(F)(F)F)c1)CN(c1cccc(C3(C(F)(F)c4nncn4C)COC3)c1)C2=O)N1CC[C@H](F)C1 [Example 571, 2-(3-(3-(difluoro(4-methyl-4H-1,2,4-triazol-3-yl)methyl)oxetan-3-yl)phenyl)-6-((R)-1-((S)-3-fluoropyrrolidin-1-yl)ethyl)-4-(trifluoromethyl)isoindolin-1-one] | – | – | – | – | – | – | – | ≤ 100 | – | – | – | – | > 1 | > 7.5 | > 7.5 | > 0.201
8 | C[C@H](c1cc2c(c(C(F)(F)F)c1)CN(c1cccc(C3([C@@H](F)c4nncn4C)COC3)c1)C2=O)N1CCC2(CC2)C1 [Example 576, 6-((R)-1-(5-azaspiro[2.4]heptan-5-yl)ethyl)-2-(3-(3-((R)-fluoro(4-methyl-4H-1,2,4-triazol-3-yl)methyl)oxetan-3-yl)phenyl)-4-(trifluoromethyl)isoindolin-1-one] | – | – | – | – | – | – | – | ≤ 100 | – | – | – | – | > 1 | > 7.5 | > 7.5 | > 0.201
9 | Cn1cnnc1CC1(c2cccc(N3Cc4c(cc(CN5CCC(C)(F)CC5)cc4C(F)(F)F)C3=O)c2)COC1 [Example 620, 6-((4-fluoro-4-methylpiperidin-1-yl)methyl)-2-(3-(3-((4-methyl-4H-1,2,4-triazol-3-yl)methyl)oxetan-3-yl)phenyl)-4-(trifluoromethyl)isoindolin-1-one] | – | – | – | – | – | – | – | ≤ 100 | – | – | – | – | > 1 | > 7.5 | > 7.5 | > 0.201
10 | C[C@@H]1CN(Cc2cc3c(c(C(F)(F)F)c2)CN(c2cccc(C4(Cc5nncn5C)COC4)c2)C3=O)CCO1 [Example 663b, (R)-2-(3-(3-((4-methyl-4H-1,2,4-triazol-3-yl)methyl)oxetan-3-yl)phenyl)-6-((2-methylmorpholino)methyl)-4-(trifluoromethyl)isoindolin-1-one] | – | – | – | – | – | – | – | ≤ 100 | – | – | – | – | > 1 | > 7.5 | > 7.5 | > 0.201
11 | Cn1cnnc1[C@@H](F)C1(c2cccc(N3Cc4c(cc(CN5CCC(F)CC5)cc4C(F)(F)F)C3=O)c2)COC1 [Example 670a, (S)-2-(3-(3-(fluoro(4-methyl-4H-1,2,4-triazol-3-yl)methyl)oxetan-3-yl)phenyl)-6-((4-fluoropiperidin-1-yl)methyl)-4-(trifluoromethyl)isoindolin-1-one] | – | – | – | – | – | – | – | ≤ 100 | – | – | – | – | > 1 | 5 to 7.5 | > 7.5 | > 0.201
12 | Cn1cnnc1[C@H](F)C1(c2cccc(N3Cc4c(cc(CN5CCC(F)CC5)cc4C(F)(F)F)C3=O)c2)COC1 [Example 670b, (R)-2-(3-(3-(fluoro(4-methyl-4H-1,2,4-triazol-3-yl)methyl)oxetan-3-yl)phenyl)-6-((4-fluoropiperidin-1-yl)methyl)-4-(trifluoromethyl)isoindolin-1-one] | – | – | – | – | – | – | – | ≤ 100 | – | – | – | – | > 1 | > 7.5 | > 7.5 | > 0.201
